Reference: patent publication US20260085068A1, “A NOVEL CRYSTALLINE FORM OF PRITELIVIR” (Assembly Biosciences, Inc., priority 2022, published 2026)
≈ marks a conversion by molar mass, not a printed value.

Assay: Solubility determination in aqueous vehicle (0.9% NaCl and 0.5% polysorbate 80), filtrate analyzed by HPLC
Type: physicochemical
Experimental: Sample preparation: excess Type 8 was added to the vehicle containing 0.9% NaCl and 0.5% polysorbate 80 to achieve ˜3 mg/mL suspension. The mixture was sonicated for 15 minutes, then agitated at 500 rpm at room temperature. At 24 hours, the mixture was filtrated, and filtrate was analyzed by HPLC to determine the solubility. • Instrument: Agilent 1260 • Column: ACE ultracore super C18 (100 mm*4.6 mm*2.5 μm) (P/N: CORE-25A-1046U) • Wavelength: 234 nm • Column Temperature: 20° C. • Column Flow: 1.0 mL/min • Acquisition time: 25 min • Injection volume: 5 μL • Retention time: ˜14 min • Mobile Phase A: 5 mM (NH4)2HPO4 and 5 mM of NH4H2PO4 in H2O • Mobile Phase B: ACN [table] The solubility of Form C (hemihydrate as disclosed in WO 2018/096170) was determined in the same media used to determine the solubility of Type 8 as described above. Sample preparation: excess Form C was added to the vehicle containing 0.9% NaCl and 0.5% polysorbate 80. The mixture was sonicated for 15 minutes, then agitated at 500 rpm at room temperature. At 24 hours, the mixture was filtrated, and filtrate was analyzed by HPLC to determine the solubility.

solubility at 24 h (aqueous vehicle (0.9% NaCl and 0.5% polysorbate 80), aqueous with cosolvent or surfactant or cyclodextrin, thermodynamic from solid, RT, 0.9% NaCl and 0.5% polysorbate 80): ~70.7 µg/mL (≈ 176 µM) | solubility (room temperature, aqueous media containing 0.9% NaCl and 0.5% polysorbate 80, at 24 hours): around 70.7 μg/mL
SMILES: Cc1nc(N(C)C(=O)Cc2ccc(-c3ccccn3)cc2)sc1S(N)(=O)=O [Type 8, N-methyl-N-(4-methyl-5-sulfamoylthiazol-2-yl)-2-(4-(pyridin-2-yl)phenyl) acetamide]
